Assay results: US9451771B2, “Compositions and methods to attract the brown marmorated stink bug (BMSB), Halyomorpha halys” (United States of America as Represented by the Secretary of …, priority 2012, dated 2016)

Test system: brown marmorated stink bug (BMSB), Halyomorpha halys
Assay: Field trials of experimental pheromone constituents, baited black pyramid traps
Type: in vivo
Description: Field Bioassays. Field Trials of Experimental Pheromone Constituents: Pyramid traps based on dimensions previously used for native stink bugs (Leskey and Hogmire 2005, Hogmire and Leskey 2006) and for brown marmorated stink bugs (Leskey et al. 2012c) were used for all trials. […] Each panel was 1.22 m high, 52 cm wide at the base, and 7 cm wide at the top. Collection jars were constructed based on previously published dimensions (Hogmire and Leskey 2006) with internal cone opening of 1.6 cm with trimmed wire edging to reduce escape. In addition, a Hercon Vaportape™ II (Hercon Environmental, Emigsville, Pa.) was added as a killing agent to prevent escape from traps. In a preliminary study, addition of a killing agent increased trap captures ˜250%. Traps were deployed ˜5 meters from the border of apple and pear orchards at the Appalachian Fruit Research Station or in the border area between wood lots and row crops in Kearneysville, W. Va., Shepherdstown, W. Va., Keedysville, Md., and Beltsville, Md. Traps were spaced ˜50 meters apart. Traps were baited with compounds identified from headspace collections of male BMSB, synthesized and formulated into gray rubber septa or left unbaited.
Fourteen trials were conducted between 19 Apr. to 20 Oct. 2011 (Table 3) and four trials between 20 Mar. to 10 Oct. 2012 (Table 4). Traps were checked a minimum of twice weekly and the treatments were re-randomized at each collection.
All adults and nymphs were removed from traps and recorded. Hercon Vaportape™ strips were changed at four week intervals and lures were changed at two week intervals. Comparisons of adult and nymphal captures used the SAS GLM procedure to evaluate effect of treatment and replicate followed by Tukey's HSD if the model was significant. Appropriate transformations were used to stabilize normality if needed. The effect of sex was dropped from all models because it was never a significant factor.

[1] = AFRS 2011, Trial One, 19 April-10 May
[2] = AFRS 2011, Trial Seven, 8-19 August
[3] = AFRS 2011, Trial Ten, 19 Sept.-4 Oct.
[4] = Beltsville 2011, Trial One, 19 April-10 May

Structure (SMILES): CCC\C=C/C=C/C=C/C(=O)OC [Lure #3, Methyl (2E,4E,6Z)-decatrienoate]
- Mean number BMSB adults (±SE) captured [1]: 0.00 ± 0.00 per trap per sample
- Mean number BMSB nymphs (±SE) captured [1]: 0.00 ± 0.00 per trap per sample
- Mean number BMSB adults (±SE) captured [2]: 1.97 ± 0.37a per trap per sample
- Mean number BMSB nymphs (±SE) captured [2]: 34.55 ± 5.85a per trap per sample
- Mean number BMSB adults (±SE) captured [3]: 22.76 ± 4.41a per trap per sample
- Mean number BMSB nymphs (±SE) captured [3]: 1.24 ± 0.34a per trap per sample
- Mean number BMSB adults (±SE) captured [4]: 0.02 ± 0.02ab per treatment
- Mean number BMSB nymphs (±SE) captured [4]: 0.00 ± 0.00 per treatment
